Test results: US20090221095A1, “Colorimetric Screening of DNA Binding/Intercalating Agents with Gold Nanoparticle Probes” (NORTHWESTERN UNIVERSITY, priority 2005, published 2009)

Tests used:
Type in all cases: binding
[1] = test system: triplex DNA (NP-1/DNA-3/NP-2); test: Colorimetric triplex binder assay: aggregation of NP-1, NP-2 gold nanoparticles and free DNA-3; details: NP-1 and NP-2 1.5 nM each, DNA-3 150 nM, binder 5 μM, 10 mM PBS pH 7.0, NaCl 0.5 M, room temperature
Description: This method utilizes the aggregation-induced, red-to-blue color change associated with 13 nm gold (Au) nanoparticles. The assay consists of two sets of gold nanoparticles NP-1 and NP-2, and a free strand of DNA, DNA-3. […] DNA-3 is complementary to NP-1 with a two base dangling end to prevent noncross-linked NP-1 aggregation. When NP-1 and DNA-3 are combined, they form nonaggregate linking duplexes on the nanoparticle surface. […] However, introduction of a strong triplex binding agent, benzo[e]pyridoindole (BePl), stabilizes triplex formation through Hoogsteen-type Py-PaPy triplet base hydrogen bonds and induces nanoparticle aggregation resulting in a concomitant red-to-blue color change due to a red-shifting and dampening of the nanoparticle plasmon resonance (Scheme 1).
This assay is prepared by combining NP-1 and NP-2 (1.5 nM each) in a 1:1 molar ratio in 10 mM PBS buffer (pH=7.0, NaCl 0.5 M) with DNA-3 (150 nM) and BePl (5 μM). […] This stabilization results in a dramatic decrease in absorbance at 520 nm accompanied by a red-to-blue color change. Note that in the absence of DNA-3, NP-1 and NP-2 cannot form aggregates even in the presence of a strong triplex binder (FIG. 1B).
To further investigate the importance of the triplex structure and rule out aggregation due to duplex formation between the nanoparticles, the assay as set out in Example I was performed in the presence of seven additional duplex binders 4′,6-diamidino-2-phenylindole (DAPI), ellipticine (EIPT), amsacrine (AMSA), daunorubicin (DNR), anthraquinone-2-carboxylic acid (AQ2A), ethidium bromide (EB), and 9-aminoaclidine (9-AA)(5 μM).
In general, assay methods that can detect drug candidates by the naked eye, without resorting to any instrumentation, are convenient, and for this reason, an assay that could screen for triplex binders would be of great interest. At present, there are no assays that provide this capability. […] The mixtures of NP-1, NP-2 and DNA-3 containing the control and duplex intercalators remain red in color.

[2] = test system: triplex DNA (DNA-1, DNA-2, DNA-3); test: UV melting (260 nm) of unmodified triplex DNA-1, DNA-2, DNA-3 (no nanoparticles); details: duplex melting transition; solution-phase unmodified DNA, 1 μM each strand, 6 μM binder, 0.5 M NaCl 10 mM PBS
Protocol: To compare the results from the previous examples with more traditional screening techniques, all eight intercalators were screened, plus a control, by monitoring UV absorbance melting curves (260 nm) of unmodified DNA-1, DNA-2, and DNA-3 (1 μM each), with each intercalator (10 μM), (DNA-1; 3′ TTCTTCTTTTTT CT-5′. DNA-2: 5′-TTCTTCTTTTTTCT-3′, DNA-3: 5′-AAGAAGAAAAAA-3′). (FIG. 2B). The melting experiment performed in the presence of BePl has two melting transitions. The first Tm at 34.8° C. is associated with the denaturation of the triplex structure and the second Tm at 61.4° C. is representative of the corresponding duplex.
(§1) To determine the Tm of the duplex DNA in the presence of DNA binders, 2 μM duplex DNA and 5 μM DNA binder were combined in 0.3 M NaCl 10 mM PBS. To determine the Tm of the triplex DNA in the presence of DNA binders, 1 μM of each strand and 6 μM of each DNA binder were combined in 0.5 M NaCl 10 mM PBS. UV-vis melting curves were measured on a CARRY 500 spectrophotometer equipped with a circulating bath. The melting process was monitored by measuring the change in extinction at 260 nm. The solutions were stirred continuously with a magnetic stir bar as the solution temperature was increased at a rate of 0.5° C./min. The first derivative generated from the melting curves was used to determine the Tm.
A melting transition associated with the triple helix was found only for experiments performed in the presence of BePI (34.8° C.) and CORA (17.1° C.) where BePI is determined to be the stronger binder. This is in agreement with the results determined by the chip-based scanometric method described above.

[3] = test system: duplex DNA between NP-1 and NP-2; test: Melting temperature of NP-1/NP-2 gold nanoparticle duplex nanoassemblies (520 nm); details: NP-1 and NP-2 1.5 nM each, intercalator 5 μM, 10 mM PBS pH 7.0, NaCl 0.1 M, control 26.4
Description: This method also utilizes the aggregation-induced, red-to-blue color change associated with 13 nm Au nanoparticles. Gold nanoparticles are functionalized with one of two complementary thiol-modified oligonucleotide strands and are denoted NP-1 and NP-2. When NP-1 and NP-2 are combined, they form aggregates through a reversible DNA hybridization process. This process results in a red-to-blue color change due to a red-shifting and dampening of the nanoparticle plasmon resonance. Increasing the temperature above the melting temperature of the DNA reverses the process, and the particles dissociate with a concomitant blue-to-red color change. […] This increased stability is reflected by an increase in melting temperature. Note that the shape and breadth of the transition is almost independent of the intercalator (FIG. 4). Therefore, by monitoring the blue-to-red color transition of hybridized oligonucleotide-modified Au nanoparticles in the presence of different compounds, the relative strength of intercalator binding can be determined with the naked-eye.
(§2) The assay is initiated by mixing NP-1 and NP-2 (1.5 nM each) in a 1:1 molar ratio in 10 mM PBS buffer (pH=7.0, NaCl 0.1 M. The melting temperatures of the nanoassemblies (NP-1 and NP-2) were then determined in the presence of 4′,6-diamidino-2-phenylindole (DAPI), ellipticine (EIPT), Amsacrine (AMSA), daunorubicin (DNR), anthraquinone-2-carboxylic acid (AQ2A), ethidium bromide (EB), and 9-aminoacridine (9-AA) (5 μM), respectively. UV melting profiles were measured by monitoring the absorbance at 520 nm at a scan rate of 0.5° C. min^−1. Melting temperatures were determined by taking the maxima of the first derivative of the melting curves. Control experiments were run by determining the melting temperatures of unmodified duplex DNA (DNA-1: 5′-TAACAATAA-3′, DNA-2: 5′-TTATTGTTA-3′) in the presence of all seven intercalators shown in Table 1.

[4] = test system: unmodified duplex DNA (DNA-1: 5′-TAACAATAA-3′, DNA-2: 5′-TTATTGTTA-3′); test: Melting temperature of solution-phase unmodified duplex DNA (no nanoparticles); details: for Tm, melting temperature of solution-phase unmodified DNA: 2 uM duplex DNA, 5 uM DNA binder, control (no DNA binder) 19.1; for relative trend in binding strength: from control experiments, Tm of solution-phase unmodified DNA (Table 2)
Protocol: as §2, §1

| Structure (SMILES) | nanoparticle aggregation (decrease in absorbance at 520 nm, red-to-blue color change) [1] | Tm 2-1 [2] | Tm^a, melting temperature of nanoassemblies [3] | Tm, melting temperature of solution-phase unmodified DNA [4] | relative trend in binding strength [4] |
| --- | --- | --- | --- | --- | --- |
| O=C(O)c1ccc2c(c1)C(=O)c1ccccc1C2=O [AQ2A, anthraquinone-2-carboxylic acid] | no nanoparticle aggregation | 59.1 °C | 28.5 °C | 19.4 °C |  |
| N=C(N)c1ccc(-c2cc3ccc(C(=N)N)cc3[nH]2)cc1 [DAPI, 4′,6-diamidino-2-phenylindole] | no nanoparticle aggregation | 66.3 °C | 50.4 °C | 27.8 °C | DAPI>DNR>EB>other intercalators |
| Cc1c2ccncc2c(C)c2c1[nH]c1ccccc12 [EIPT, ellipticine] | no nanoparticle aggregation | 59.3 °C | 29.2 °C | 20.5 °C |  |
| Nc1c2ccccc2nc2ccccc12 [9-AA, 9-aminoacridine] | no nanoparticle aggregation | 59.1 °C | 30.9 °C | 19.3 °C |  |
| COc1cccc2c1C(=O)c1c(O)c3c(c(O)c1C2=O)C[C@@](O)(C(C)=O)C[C@@H]3O[C@H]1C[C@H](N)[C@H](O)[C@H](C)O1 [DNR, daunorubicin] | no nanoparticle aggregation | 61.7 °C | 38.4 °C | 25.4 °C | DAPI>DNR>EB>other intercalators |
